From patent publication US20100048597A1 (Novartis AG, priority 2006, published 2010) come the findings set out here.

Common to all, as to format: biochemical
Assay [1] addresses T1, CDK2/cyclinA (Homo sapiens, UniProt P24941).
T1 construct: purchased Millipore
Briefly: CDK2/cyclinA kinase assay, IMAP fluorescence polarization. Here is the method:
(§1) Kinase assays were performed on recombinant purified enzymes using the non-radioactive IMAP fluorescence polarization assay format.
(§2) Compound stocks were prepared and diluted in DMSO and were added to kinase reactions at a 1/100 dilution for a final concentration of 1% DMSO. The components were added together to final concentrations listed in the tables below and incubated for two hours at room temperature.
(§3) The reactions were stopped by addition of stop solution.
CDK2: final stop concentration is 1× Developer buffer (100% A), IMAP beads 1/400
(§4) The samples were allowed to incubate for one more hour at room temperature and then the fluorescence polarization was measured. The plate normalized millipolarization (mP) values were plotted against the log of compound concentration for each compound and IC50 values were calculated using the spotfire IC50 calculator and confirmed by visual analysis.
For orientation: Polarisation of emitted light reports the rotation of a fluorescent probe.

For assay [2], the target named is T2, CDK1/cyclinB (Homo sapiens, UniProt P06493).
T2 construct: purchased Millipore
T2 sequence (P06493 whole entry): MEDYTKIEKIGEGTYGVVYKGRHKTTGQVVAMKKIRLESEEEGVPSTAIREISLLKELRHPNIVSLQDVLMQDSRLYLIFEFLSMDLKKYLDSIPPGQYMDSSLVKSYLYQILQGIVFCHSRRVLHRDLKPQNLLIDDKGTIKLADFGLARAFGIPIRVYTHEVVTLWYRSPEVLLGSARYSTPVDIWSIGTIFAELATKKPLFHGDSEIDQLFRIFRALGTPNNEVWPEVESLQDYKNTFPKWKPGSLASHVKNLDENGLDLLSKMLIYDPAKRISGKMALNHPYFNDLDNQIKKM
T2 sequence (P14635 whole entry partner): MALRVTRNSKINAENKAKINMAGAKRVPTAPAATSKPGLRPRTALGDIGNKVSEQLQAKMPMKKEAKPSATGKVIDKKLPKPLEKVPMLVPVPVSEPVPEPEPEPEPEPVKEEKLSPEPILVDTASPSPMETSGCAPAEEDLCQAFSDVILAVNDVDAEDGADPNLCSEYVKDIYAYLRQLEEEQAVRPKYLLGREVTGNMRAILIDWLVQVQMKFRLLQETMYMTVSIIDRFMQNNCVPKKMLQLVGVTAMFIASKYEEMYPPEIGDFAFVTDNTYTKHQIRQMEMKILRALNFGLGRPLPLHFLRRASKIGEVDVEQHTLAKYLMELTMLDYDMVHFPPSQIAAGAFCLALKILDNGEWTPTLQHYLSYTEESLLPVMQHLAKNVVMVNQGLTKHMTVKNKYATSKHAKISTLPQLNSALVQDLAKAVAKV
Briefly: CDK1/cyclinB kinase assay, IMAP fluorescence polarization. As to the method:
as §1, §2, §3
The samples were allowed to incubate for one more hour at room temperature and then the fluorescence polarization was measured.

For assay [3], the target named is T3, CDK9/cyclinT1 (Homo sapiens, UniProt P50750).
T3 construct: purchased Millipore
T3 sequence (P50750 whole entry): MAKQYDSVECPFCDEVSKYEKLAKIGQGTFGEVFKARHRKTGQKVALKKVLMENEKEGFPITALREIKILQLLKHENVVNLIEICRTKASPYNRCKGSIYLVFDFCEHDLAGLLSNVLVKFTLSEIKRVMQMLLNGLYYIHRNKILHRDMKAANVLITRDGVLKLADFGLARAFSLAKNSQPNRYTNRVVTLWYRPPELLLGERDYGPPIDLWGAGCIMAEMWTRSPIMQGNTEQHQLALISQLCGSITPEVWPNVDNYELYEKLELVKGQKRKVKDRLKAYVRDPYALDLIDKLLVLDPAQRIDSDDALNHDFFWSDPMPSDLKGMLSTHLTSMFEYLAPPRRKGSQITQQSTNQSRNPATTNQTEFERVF
T3 sequence (O60563 whole entry partner): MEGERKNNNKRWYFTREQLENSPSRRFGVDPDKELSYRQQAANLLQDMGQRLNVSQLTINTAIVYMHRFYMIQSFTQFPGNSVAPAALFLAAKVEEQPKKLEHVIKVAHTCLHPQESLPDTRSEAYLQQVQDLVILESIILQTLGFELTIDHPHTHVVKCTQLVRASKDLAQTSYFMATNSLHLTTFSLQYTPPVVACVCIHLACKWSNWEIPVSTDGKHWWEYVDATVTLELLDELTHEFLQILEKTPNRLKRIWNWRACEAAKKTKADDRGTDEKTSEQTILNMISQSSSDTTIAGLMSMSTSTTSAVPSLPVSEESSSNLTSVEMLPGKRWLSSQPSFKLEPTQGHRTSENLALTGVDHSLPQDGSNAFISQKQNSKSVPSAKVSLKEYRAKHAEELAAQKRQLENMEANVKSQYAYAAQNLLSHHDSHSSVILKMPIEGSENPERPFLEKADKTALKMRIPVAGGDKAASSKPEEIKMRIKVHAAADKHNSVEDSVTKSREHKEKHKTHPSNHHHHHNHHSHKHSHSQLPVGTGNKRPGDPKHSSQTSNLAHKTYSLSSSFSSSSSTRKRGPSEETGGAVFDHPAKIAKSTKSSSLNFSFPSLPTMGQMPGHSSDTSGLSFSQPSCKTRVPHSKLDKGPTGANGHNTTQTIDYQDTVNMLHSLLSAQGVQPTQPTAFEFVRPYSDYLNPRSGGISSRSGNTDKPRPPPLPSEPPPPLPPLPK
The experiment in a line: CDK9/cyclinT1 kinase assay, IMAP fluorescence polarization. As to the method:
as §1, §2, §3
CDK9/CDK1/CDK7: final stop concentration is 1× Developer buffer (85% A/15% B), IMAP beads 1/400
as §4

Where two headings read alike, the source gives them in different places.

As to `Clc1cccc(Nc2nccc(-c3cccnc3NCC3CCCCC3)n2)c1` [Compound 50, (3-Chloro-phenyl)-{4-[2-(cyclohexylmethyl-amino)-pyridin-3-yl]-pyrimidin-2-yl}-amine], the IC50 in assay [1], in assay [2] (read-out: CDK1 IC50) and in assay [3] was greater than 50 µM each time.
Regarding `CN(C)CCNc1ncccc1-c1ccnc(Nc2cccc(Cl)c2)n1` [Compound 53, N-{3-[2-(3-Chloro-phenylamino)-pyrimidin-4-yl]-pyridin-2-yl}-N′,N′-dimethyl-ethane-1,2-diamine], the figures for the IC50 in assay [1], in assay [2] (read-out: CDK1 IC50) and in assay [3] were 5 to 15 µM, 15 to 50 µM and less than 5 µM, respectively.
For `CC(=O)NCCNc1ncccc1-c1ccnc(Nc2cccc(Cl)c2)n1` [Compound 54, N-(2-{3-[2-(3-Chloro-phenylamino)-pyrimidin-4-yl]-pyridin-2-ylamino}-ethyl)-acetamide], in that order: less than 5 µM, less than 5 µM and less than 5 µM.
Turning to `Cc1cnc(Nc2cccc(Cl)c2)nc1-c1cccnc1NCCCN` [Compound 56, N-{3-[2-(3-Chloro-phenylamino)-5-methyl-pyrimidin-4-yl]-pyridin-2-yl}-propane-1,3-diamine], the IC50 in assay [1], in assay [2] (read-out: CDK1 IC50) and in assay [3] was less than 5 µM throughout.
For the compound `CCCCNc1ncccc1-c1nc(Nc2cccc(Cl)c2)ncc1C` [Compound 57, [4-(2-Butylamino-pyridin-3-yl)-5-methyl-pyrimidin-2-yl]-(3-chloro-phenyl)-amine], the IC50 (usually the concentration that inhibits the measured activity by half) in assay [1] is greater than 50 µM; in assay [2] (read-out: CDK1 IC50) it was greater than 50 µM; in assay [3] it was less than 5 µM.
Consider `CNCCCNc1ncccc1-c1ccnc(Nc2cccc(Cl)c2)n1` [Compound 62, N-{3-[2-(3-Chloro-phenylamino)-pyrimidin-4-yl]-pyridin-2-yl}-N′-methyl-propane-1,3-diamine], for which the IC50 in assay [1] is 5 to 15 µM; in assay [2] (read-out: CDK1 IC50), 5 to 15 µM; in assay [3], less than 5 µM.
On to `CC(=O)NCCCNc1ncccc1-c1nc(Nc2cccc(Cl)c2)ncc1C` [Compound 66, N-(3-{3-[2-(3-Chloro-phenylamino)-5-methyl-pyrimidin-4-yl]-pyridin-2-ylamino}-propyl)-acetamide], for which the values for the IC50 in assay [1], in assay [2] (read-out: CDK1 IC50) and in assay [3] were 15 to 50 µM, greater than 50 µM and less than 5 µM, respectively.
On to `CC(C)(C)C(=O)NCCCNc1ncccc1-c1ccnc(Nc2cccc(Cl)c2)n1` [Compound 70, N-(3-{3-[2-(3-Chloro-phenylamino)-pyrimidin-4-yl]-pyridin-2-ylamino}-propyl)-2,2-dimethyl-propionamide], for which the 50% inhibitory concentration (IC50) in assay [1] is 5 to 15 µM; in assay [2] (read-out: CDK1 IC50), 5 to 15 µM; in assay [3] it was less than 5 µM.
As to `CC(C)(C)CC(=O)NCCCNc1ncccc1-c1ccnc(Nc2cccc(Cl)c2)n1` [Compound 71, N-(3-{3-[2-(3-Chloro-phenylamino)-pyrimidin-4-yl]-pyridin-2-ylamino}-propyl)-3,3-dimethyl-butyramide], the half-inhibitory concentration (IC50) in assay [1] is greater than 50 µM; in assay [2] (read-out: CDK1 IC50), 5 to 15 µM; in assay [3], less than 5 µM.
Regarding `COCCCNc1ncccc1-c1ccnc(Nc2cccc(Cl)c2)n1` [Compound 75, (3-Chloro-phenyl)-{4-[2-(3-methoxy-propylamino)-pyridin-3-yl]-pyrimidin-2-yl}-amine], the IC50 in assay [1] was less than 5 µM; in assay [2] (read-out: CDK1 IC50), 5 to 15 µM; in assay [3], less than 5 µM.
Take `CC(=O)OCCCNc1ncccc1-c1ccnc(Nc2cccc(Cl)c2)n1` [Compound 76, Acetic acid 3-{3-[2-(3-chloro-phenylamino)-pyrimidin-4-yl]-pyridin-2-ylamino}-propyl ester]: the IC50 was less than 5 µM in assay [1], 5 to 15 µM in assay [2] (read-out: CDK1 IC50) and less than 5 µM in assay [3].
With `O=C1CCCN1CCCNc1ncccc1-c1ccnc(Nc2cccc(Cl)c2)n1` [Compound 77, 1-(3-{3-[2-(3-Chloro-phenylamino)-pyrimidin-4-yl]-pyridin-2-ylamino}-propyl)-pyrrolidin-2-one], the IC50 in assay [1], in assay [2] (read-out: CDK1 IC50) and in assay [3] was less than 5 µM in each case.
With `Clc1cccc(Nc2nccc(-c3cccnc3NCCCN3CCOCC3)n2)c1` [Compound 78, (3-Chloro-phenyl)-{4-[2-(3-morpholin-4-yl-propylamino)-pyridin-3-yl]-pyrimidin-2-yl}-amine], the IC50 in assay [1] is less than 5 µM; in assay [2] (read-out: CDK1 IC50) it was 5 to 15 µM; in assay [3] it was less than 5 µM.
`Cc1nccn1CCCNc1ncccc1-c1ccnc(Nc2cccc(Cl)c2)n1` [Compound 81, (3-Chloro-phenyl)-(4-{2-[3-(2-methyl-imidazol-1-yl)-propylamino]-pyridin-3-yl}-pyrimidin-2-yl)-amine]: the IC50 in assay [1], in assay [2] (read-out: CDK1 IC50) and in assay [3] was less than 5 µM in each case.
Turning to `Cc1cnc(Nc2cccc(Cl)c2)nc1-c1cccnc1NCCCn1ccnc1C` [Compound 82, (3-Chloro-phenyl)-(5-methyl-4-{2-[3-(2-methyl-imidazol-1-yl)-propylamino]-pyridin-3-yl}-pyrimidin-2-yl)-amine], the IC50 was 15 to 50 µM in assay [1], 5 to 15 µM in assay [2] and less than 5 µM in assay [3].
In the case of `CC(=O)NCCCCNc1ncccc1-c1ccnc(Nc2cccc(Cl)c2)n1` [Compound 85, N-(4-{3-[2-(3-Chloro-phenylamino)-pyrimidin-4-yl]-pyridin-2-ylamino}-butyl)-acetamide], the IC50 in assay [1], in assay [2] (read-out: CDK1 IC50) and in assay [3] was less than 5 µM each time.
For `COc1ncccc1-c1ccnc(Nc2ccncc2)n1` [Compound 89], the 50% inhibitory concentration (IC50) in assay [1], in assay [2] (read-out: CDK1 IC50) and in assay [3] was greater than 50 µM throughout.
Turning to `COc1ncccc1-c1ccnc(Nc2cccnc2)n1` [Compound 90, [4-(2-Methoxy-pyridin-3-yl)-pyrimidin-2-yl]-pyridin-3-yl-amine], the IC50 in assay [1], in assay [2] (read-out: CDK1 IC50) and in assay [3] was greater than 50 µM each time.
With `COc1ncccc1-c1ccnc(Nc2cccc([N+](=O)[O-])c2)n1` [Compound 92, [4-(2-Methoxy-pyridin-3-yl)-pyrimidin-2-yl]-(3-nitro-phenyl)-amine], the IC50 in assay [1] was greater than 50 µM; in assay [2] (read-out: CDK1 IC50), greater than 50 µM; in assay [3], less than 5 µM.
As to `COc1ncccc1-c1ccnc(Nc2cccc(C(=O)O)c2)n1` [Compound 94, 3-[4-(2-Methoxy-pyridin-3-yl)-pyrimidin-2-ylamino]-benzoic acid], the IC50 was less than 5 µM in assay [1], 15 to 50 µM in assay [2] (read-out: CDK1 IC50) and 15 to 50 µM in assay [3].
`COc1ncccc1-c1ccnc(Nc2cccc(C(N)=O)c2)n1` [Compound 95, 3-[4-(2-Methoxy-pyridin-3-yl)-pyrimidin-2-ylamino]-benzamide]: the IC50 in assay [1], in assay [2] (read-out: CDK1 IC50) and in assay [3] was less than 5 µM in each case.
Consider `CCNC(=O)c1cccc(Nc2nccc(-c3cccnc3OC)n2)c1` [Compound 96, N-Ethyl-3-[4-(2-methoxy-pyridin-3-yl)-pyrimidin-2-ylamino]-benzamide], for which the concentration for half-maximal inhibition (IC50) in assay [1], in assay [2] (read-out: CDK1 IC50) and in assay [3] was less than 5 µM throughout.
For `COc1ncccc1-c1ccnc(Nc2cccc(C(=O)NCCN(C)C)c2)n1` [Compound 97, N-(2-Dimethylamino-ethyl)-3-[4-(2-methoxy-pyridin-3-yl)-pyrimidin-2-ylamino]-benzamide], the figures for the IC50 in assay [1], in assay [2] (read-out: CDK1 IC50) and in assay [3] were 5 to 15 µM, 5 to 15 µM and less than 5 µM, respectively.
Take `COc1ncccc1-c1ccnc(Nc2cccc(NC(C)=O)c2)n1` [Compound 98, N-{3-[4-(2-Methoxy-pyridin-3-yl)-pyrimidin-2-ylamino]-phenyl}-acetamide]: the IC50 in assay [1], in assay [2] (read-out: CDK1 IC50) and in assay [3] was less than 5 µM each time.
Consider `CNS(=O)(=O)c1cccc(Nc2nccc(-c3cccnc3OC)n2)c1` [Compound 100, 3-[4-(2-Methoxy-pyridin-3-yl)-pyrimidin-2-ylamino]-N-methyl-benzenesulfonamide], for which the half-maximal inhibitory concentration (IC50) in assay [1], in assay [2] (read-out: CDK1 IC50) and in assay [3] was less than 5 µM in each case.
For `CCNS(=O)(=O)c1cccc(Nc2nccc(-c3cccnc3OC)n2)c1` [Compound 101, N-Ethyl-3-[4-(2-methoxy-pyridin-3-yl)-pyrimidin-2-ylamino]-benzenesulfonamide], the values for the IC50 in assay [1], in assay [2] (read-out: CDK1 IC50) and in assay [3] were less than 5 µM, greater than 50 µM and less than 5 µM, respectively.
As to `COc1ncccc1-c1ccnc(Nc2cccc(S(=O)(=O)NCCO)c2)n1` [Compound 103, N-(2-Hydroxy-ethyl)-3-[4-(2-methoxy-pyridin-3-yl)-pyrimidin-2-ylamino]-benzenesulfonamide], the IC50 in assay [1], in assay [2] (read-out: CDK1 IC50) and in assay [3] was less than 5 µM in each case.
Consider `COc1ncccc1-c1ccnc(Nc2cccc(S(=O)(=O)NC3CCCCC3)c2)n1` [Compound 104, N-Cyclohexyl-3-[4-(2-methoxy-pyridin-3-yl)-pyrimidin-2-ylamino]-benzenesulfonamide], for which the half-maximal inhibitory concentration (IC50) in assay [1], in assay [2] (read-out: CDK1 IC50) and in assay [3] was greater than 50 µM throughout.
In the case of `COc1ncccc1-c1ccnc(Nc2cccc(N3CCCC3)c2)n1` [Compound 106, [4-(2-Methoxy-pyridin-3-yl)-pyrimidin-2-yl]-(3-pyrrolidin-1-yl-phenyl)-amine], the IC50 was 15 to 50 µM in assay [1], 5 to 15 µM in assay [2] (read-out: CDK1 IC50) and less than 5 µM in assay [3].
